# Test results as given in patent US8741906B2 (priority 2011, dated 2014).
# Where two headings read alike, the source gives them in different places.
# Tests used:
# human CB1 receptors = biological target: T1, human CB1 receptors (Homo sapiens, UniProt P21554); test: functional cAMP assay, human CB1; assay type: cell-based
# T1 construct: expressed in transfected cells; host or cells: CHO cells
# Method in brief: (§1)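 Cells are seeded 17-24 h ahead, then preincubated in Krebs Ringer bicarbonate buffer with 1 mM IBMX at 30 °C. Compounds act for 30 min at 30 °C, after which lysis and cAMP detection reagents are added for 2 h at room temperature. Time-resolved FRET gives cAMP content, and EC50 values are fitted from it.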
# human CB2 receptors = biological target: T2, human CB2 receptors (Homo sapiens, UniProt P34972); test: functional cAMP assay, human CB2; assay type: cell-based
# T2 construct: expressed in transfected cells; host or cells: CHO cells
# T2 sequence (P34972 whole entry): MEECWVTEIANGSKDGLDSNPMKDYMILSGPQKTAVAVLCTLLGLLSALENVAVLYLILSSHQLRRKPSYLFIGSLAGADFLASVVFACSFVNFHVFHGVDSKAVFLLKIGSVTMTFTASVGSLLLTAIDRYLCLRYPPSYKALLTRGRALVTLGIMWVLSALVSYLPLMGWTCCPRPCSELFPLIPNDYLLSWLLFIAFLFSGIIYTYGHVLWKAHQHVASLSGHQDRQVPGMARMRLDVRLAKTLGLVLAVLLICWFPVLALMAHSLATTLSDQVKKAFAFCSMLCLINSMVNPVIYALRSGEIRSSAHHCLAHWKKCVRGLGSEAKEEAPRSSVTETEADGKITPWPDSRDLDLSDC
# Method in brief: as §1
# [1] = CHO cells expressing human CB1, cAMP, read-out: human CB1 EC50
# [2] = CHO cells expressing human CB2, cAMP, read-out: human CB2 EC50
# T1 sequence (P21554 whole entry): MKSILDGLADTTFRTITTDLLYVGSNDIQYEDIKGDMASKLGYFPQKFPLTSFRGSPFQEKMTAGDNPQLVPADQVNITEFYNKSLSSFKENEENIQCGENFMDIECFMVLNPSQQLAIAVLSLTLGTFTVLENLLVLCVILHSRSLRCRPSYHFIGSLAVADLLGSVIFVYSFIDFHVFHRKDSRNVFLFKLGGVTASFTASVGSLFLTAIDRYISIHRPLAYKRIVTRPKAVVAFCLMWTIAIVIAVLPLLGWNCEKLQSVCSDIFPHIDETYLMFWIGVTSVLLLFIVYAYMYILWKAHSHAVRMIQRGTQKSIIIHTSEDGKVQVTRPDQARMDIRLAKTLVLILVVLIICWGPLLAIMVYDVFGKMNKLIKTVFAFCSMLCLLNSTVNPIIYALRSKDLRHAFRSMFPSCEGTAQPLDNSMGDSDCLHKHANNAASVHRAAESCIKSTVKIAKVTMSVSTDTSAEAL
SMILES,EC50 (human CB1 receptors; [1]) [µM],EC50 (human CB2 receptors; [2]) [µM],EC50 (human CB1 receptors) [µM],EC50 (human CB2 receptors) [µM]
"CC(C)(C)c1nc(N2CC[C@H](O)C2)c2nnn(Cc3nccc(Cl)c3Cl)c2n1 [Example 148, (S)-1-[5-tert-Butyl-3-(3,4-dichloro-pyridin-2-ylmethyl)-3H-[1,2,3]triazolo[4,5-d]pyrimidin-7-yl]-pyrrolidin-3-ol]",> 10,0.0004,,
"Cc1nc(Cn2nnc3c(N4CC[C@H](O)C4)nc(C(C)(C)C)nc32)no1 [Example 149, (S)-1-[5-tert-Butyl-3-(5-methyl-[1,2,4]oxadiazol-3-ylmethyl)-3H-[1,2,3]triazolo[4,5-d]pyrimidin-7-yl]-pyrrolidin-3-ol]",> 10,0.0174,,
"Cc1nnc(Cn2nnc3c(N4CC[C@H](O)C4)nc(C(C)(C)C)nc32)o1 [Example 150, (S)-1-[5-tert-Butyl-3-(5-methyl-[1,3,4]oxadiazol-2-ylmethyl)-3H-[1,2,3]triazolo[4,5-d]pyrimidin-7-yl]-pyrrolidin-3-ol]",> 10,0.0363,,
"Cn1nnnc1Cn1nnc2c(N3CC[C@H](O)C3)nc(C(C)(C)C)nc21 [Example 151, (S)-1-[5-tert-Butyl-3-(1-methyl-1H-tetrazol-5-ylmethyl)-3H-[1,2,3]triazolo[4,5-d]pyrimidin-7-yl]-pyrrolidin-3-ol]",,,> 10,0.0014
"Cn1ncnc1Cn1nnc2c(N3CC[C@H](O)C3)nc(C(C)(C)C)nc21 [Example 152, (S)-1-[5-tert-Butyl-3-(2-methyl-2H-[1,2,4]triazol-3-ylmethyl)-3H-[1,2,3]triazolo[4,5-d]pyrimidin-7-yl]-pyrrolidin-3-ol]",> 10,0.0105,,
"Cc1nnc(Cn2nnc3c(N4CC[C@H](O)C4)nc(C(C)(C)C)nc32)n1C [Example 153, (S)-1-[5-tert-Butyl-3-(4,5-dimethyl-4H-[1,2,4]triazol-3-ylmethyl)-3H-[1,2,3]triazolo[4,5-d]pyrimidin-7-yl]-pyrrolidin-3-ol]",> 10,0.0119,,
"Cn1nncc1Cn1nnc2c(N3CC[C@H](O)C3)nc(C(C)(C)C)nc21 [Example 154, (S)-1-[5-tert-Butyl-3-(3-methyl-3H-[1,2,3]triazol-4-ylmethyl)-3H-[1,2,3]triazolo[4,5-d]pyrimidin-7-yl]-pyrrolidin-3-ol]",> 10,0.0025,,
"Cc1cc(Cn2nnc3c(N4CC[C@H](O)C4)nc(C(C)(C)C)nc32)n(C)n1 [Example 155, (S)-1-[5-tert-Butyl-3-(2,5-dimethyl-2H-pyrazol-3-ylmethyl)-3H-[1,2,3]triazolo[4,5-d]pyrimidin-7-yl]-pyrrolidin-3-ol]",> 10,0.003,,
"CC(C)(C)c1nc(N2CCC(F)(F)C2)c2nnn(Cc3nc(C(F)(F)F)no3)c2n1 [Example 156, 5-tert-Butyl-7-(3,3-difluoro-pyrrolidin-1-yl)-3-(3-trifluoromethyl-[1,2,4]oxadiazol-5-ylmethyl)-3H-[1,2,3]triazolo[4,5-d]pyrimidine]",> 10,0.0056,,
"CC(C)(C)c1nc(N2CCC(F)(F)C2)c2nnn(Cc3nnnn3C3CC3)c2n1 [Example 157, 5-tert-Butyl-3-(1-cyclopropyl-1H-tetrazol-5-ylmethyl)-7-(3,3-difluoro-pyrrolidin-1-yl)-3H-[1,2,3]triazolo[4,5-d]pyrimidine]",> 10,0.0001,,
"CC(C)(C)c1nc(N2CC[C@H](O)C2)c2nnn(Cc3cccnc3Nc3ccc([N+](=O)[O-])c4nonc34)c2n1 [Example 158, (S)-1-{5-tert-Butyl-3-[2-(7-nitro-benzo[1,2,5]oxadiazol-4-ylamino)-pyridin-3-ylmethyl]-3H-[1,2,3]triazolo[4,5-d]pyrimidin-7-yl}-pyrrolidin-3-ol]",,0.254,> 10,
"COc1ccc(Cn2nnc3c(N4CC[C@H](O)[C@@H]4CO)nc(C(C)(C)C)nc32)cc1 [Example 159, (2S,3S)-1-[5-tert-Butyl-3-(4-methoxy-benzyl)-3H-[1,2,3]triazolo[4,5-d]pyrimidin-7-yl]-2-hydroxymethyl-pyrrolidin-3-ol]",> 10,0.0358,,
"CC(C)(C)c1nc(N2CC[C@H](O)C2)c2nnn(Cc3nnnn3C3CC3)c2n1 [Example 160, (S)-1-[5-tert-Butyl-3-(1-cyclopropyl-1H-tetrazol-5-ylmethyl)-3H-[1,2,3]triazolo[4,5-d]pyrimidin-7-yl]-pyrrolidin-3-ol]",> 10,0.0007,,
"Cc1nc(Cn2nnc3c(N4CC[C@H](O)C4)nc(C(C)(C)C)nc32)n(C)n1 [Example 161, (S)-1-[5-tert-Butyl-3-(2,5-dimethyl-2H-[1,2,4]triazol-3-ylmethyl)-3H-[1,2,3]triazolo[4,5-d]pyrimidin-7-yl]-pyrrolidin-3-ol]",> 10,0.0825,,
"Cc1c(Cn2nnc3c(N4CC[C@H](O)C4)nc(C(C)(C)C)nc32)ccc[n+]1[O-] [Example 162, (S)-1-[5-tert-Butyl-3-(2-methyl-1-oxy-pyridin-3-ylmethyl)-3H-[1,2,3]triazolo[4,5-d]pyrimidin-7-yl]-pyrrolidin-3-ol]",> 10,0.0277,,
"Cc1nc(Cn2nnc3c(N4CCC(F)(F)C4)nc(C(C)(C)C)nc32)n(C)n1 [Example 163, 5-tert-Butyl-7-(3,3-difluoro-pyrrolidin-1-yl)-3-(2,5-dimethyl-2H-[1,2,4]triazol-3-ylmethyl)-3H-[1,2,3]triazolo[4,5-d]pyrimidine]",> 10,0.0055,,
"Cc1nonc1Cn1nnc2c(N3CC[C@H](O)[C@@H]3CO)nc(C(C)(C)C)nc21 [Example 164, (2S,3S)-1-[5-tert-Butyl-3-(4-methyl-furazan-3-ylmethyl)-3H-[1,2,3]triazolo[4,5-d]pyrimidin-7-yl]-2-hydroxymethyl-pyrrolidin-3-ol]",> 10,0.0008,,
"Cn1nnnc1Cn1nnc2c(N3CC[C@H](O)[C@@H]3CO)nc(C(C)(C)C)nc21 [Example 165, (2S,3S)-1-[5-tert-Butyl-3-(1-methyl-1H-tetrazol-5-ylmethyl)-3H-[1,2,3]triazolo[4,5-d]pyrimidin-7-yl]-2-hydroxymethyl-pyrrolidin-3-ol]",> 10,0.0535,,
"CC(C)(C)c1nc(N2CC[C@H](O)[C@@H]2CO)c2nnn(Cc3nnnn3C3CC3)c2n1 [Example 166, (2S,3S)-1-[5-tert-Butyl-3-(1-cyclopropyl-1H-tetrazol-5-ylmethyl)-3H-[1,2,3]triazolo[4,5-d]pyrimidin-7-yl]-2-hydroxymethyl-pyrrolidin-3-ol]",> 10,0.018,,
"CC(C)(C)c1nc(N2CC[C@H](O)[C@@H]2CO)c2nnn(Cc3ncccc3Cl)c2n1 [Example 167, (2S,3S)-1-[5-tert-Butyl-3-(3-chloro-pyridin-2-ylmethyl)-3H-[1,2,3]triazolo[4,5-d]pyrimidin-7-yl]-2-hydroxymethyl-pyrrolidin-3-ol]",> 10,0.0038,,
"CC(C)(C)c1nc(N2CC[C@H](O)[C@@H]2CO)c2nnn(Cc3ccccc3S(C)(=O)=O)c2n1 [Example 168, (2S,3S)-1-[5-tert-Butyl-3-(2-methanesulfonyl-benzyl)-3H-[1,2,3]triazolo[4,5-d]pyrimidin-7-yl]-2-hydroxymethyl-pyrrolidin-3-ol]",> 10,0.0094,,
"Cn1ncnc1Cn1nnc2c(N3CC[C@H](O)[C@@H]3CO)nc(C(C)(C)C)nc21 [Example 169, (2S,3S)-1-[5-tert-Butyl-3-(2-methyl-2H-[1,2,4]triazol-3-ylmethyl)-3H-[1,2,3]triazolo[4,5-d]pyrimidin-7-yl]-2-hydroxymethyl-pyrrolidin-3-ol]",,0.199,> 10,
"Cc1nnc(Cn2nnc3c(N4CC[C@H](O)[C@@H]4CO)nc(C(C)(C)C)nc32)n1C [Example 170, (2S,3S)-1-[5-tert-Butyl-3-(4,5-dimethyl-4H-[1,2,4]triazol-3-ylmethyl)-3H-[1,2,3]triazolo[4,5-d]pyrimidin-7-yl]-2-hydroxymethyl-pyrrolidin-3-ol]",,0.194,> 10,
"Cn1nncc1Cn1nnc2c(N3CC[C@H](O)[C@@H]3CO)nc(C(C)(C)C)nc21 [Example 171, (2S,3S)-1-[5-tert-Butyl-3-(3-methyl-3H-[1,2,3]triazol-4-ylmethyl)-3H-[1,2,3]triazolo[4,5-d]pyrimidin-7-yl]-2-hydroxymethyl-pyrrolidin-3-ol]",> 10,0.0542,,
"CC(C)(C)c1nc(N2CC[C@H](O)[C@@H]2CO)c2nnn(Cc3cccnc3Cl)c2n1 [Example 172, (2S,3S)-1-[5-tert-Butyl-3-(2-chloro-pyridin-3-ylmethyl)-3H-[1,2,3]triazolo[4,5-d]pyrimidin-7-yl]-2-hydroxymethyl-pyrrolidin-3-ol]",> 10,0.0041,,
"Cc1nonc1Cn1nnc2c(N3CC(F)(F)C(F)(F)C3)nc(C(C)(C)C)nc21 [Example 173, 5-tert-Butyl-3-(4-methyl-furazan-3-ylmethyl)-7-(3,3,4,4-tetrafluoro-pyrrolidin-1-yl)-3H-[1,2,3]triazolo[4,5-d]pyrimidine]",> 10,0.0003,,
"Cc1noc(Cn2nnc3c(N4CC(F)(F)C(F)(F)C4)nc(C(C)(C)C)nc32)n1 [Example 174, 5-tert-Butyl-3-(3-methyl-[1,2,4]oxadiazol-5-ylmethyl)-7-(3,3,4,4-tetrafluoro-pyrrolidin-1-yl)-3H-[1,2,3]triazolo[4,5-d]pyrimidine]",> 10,0.002,,
"Cc1nnc(Cn2nnc3c(N4CC(F)(F)C(F)(F)C4)nc(C(C)(C)C)nc32)o1 [Example 175, 5-tert-Butyl-3-(5-methyl-[1,3,4]oxadiazol-2-ylmethyl)-7-(3,3,4,4-tetrafluoro-pyrrolidin-1-yl)-3H-[1,2,3]triazolo[4,5-d]pyrimidine]",> 10,0.0015,,
